Reference: the kinase profiling compilation of Christmann-Franck et al. (2016)

What was measured:
Experiment in all cases: KINOMEscan competition binding
Conditions in all cases: compound 10.0 µM
STK4 (human) = STK4 (human) (UniProt Q13043)
CDKL5 (human) = CDKL5 (human) (UniProt O76039)
STK25 (human) = STK25 (human) (UniProt O00506)
RIPK1 (human) = RIPK1 (human) (UniProt Q13546)
MARK1 (human) = MARK1 (human) (UniProt Q9P0L2)
[1] = test system: EGFR (human), P00533 [747-751 del / S ins]
GSK3A (human) = GSK3A (human) (UniProt P49840)
CSF1R (human) = CSF1R (human) (UniProt P07333)
NEK7 (human) = NEK7 (human) (UniProt Q8TDX7)
MAPK10 (human) = MAPK10 (human) (UniProt P53779)
PIK3CB (human) = PIK3CB (human) (UniProt P42338)
PRKG2 (human) = PRKG2 (human) (UniProt Q13237)
[2] = biological target: TYK2 JH1 catalytic (human) (UniProt P29597)
RIOK1 (human) = RIOK1 (human) (UniProt Q9BRS2)
FLT3 (human) = FLT3 (human) (UniProt P36888)
NEK1 (human) = NEK1 (human) (UniProt Q96PY6)
AKT1 (human) = AKT1 (human) (UniProt P31749)
EPHA3 (human) = EPHA3 (human) (UniProt P29320)
SIK1 (human) = SIK1 (human) (UniProt P57059)
GSK3B (human) = GSK3B (human) (UniProt P49841)
RPS6KA6 KD1 (human) = RPS6KA6 KD1 (human) (UniProt Q9UK32)
DAPK3 (human) = DAPK3 (human) (UniProt O43293)
SRPK2 (human) = SRPK2 (human) (UniProt P78362)
MATK (human) = MATK (human) (UniProt P42679)
MAP3K10 (human) = MAP3K10 (human) (UniProt Q02779)
MYLK2 (human) = MYLK2 (human) (UniProt Q9H1R3)
PRKX (human) = PRKX (human) (UniProt P51817)
RPS6KA2 KD1 (human) = RPS6KA2 KD1 (human) (UniProt Q15349)
MAPKAPK2 (human) = MAPKAPK2 (human) (UniProt P49137)
PTK6 (human) = PTK6 (human) (UniProt Q13882)
STK32C (human) = STK32C (human) (UniProt Q86UX6)
RIPK4 (human) = RIPK4 (human) (UniProt P57078)
RPS6KA2 KD2 (human) = RPS6KA2 KD2 (human) (UniProt Q15349)
MELK (human) = MELK (human) (UniProt Q14680)
FGFR2 (human) = FGFR2 (human) (UniProt P21802)
[3] = test system: ABL1 (human), P00519 [Y253F]
VRK2 (human) = VRK2 (human) (UniProt Q86Y07)
PKN3 (M.tuberculosis) = PKN3 (M.tuberculosis) (UniProt Q6P5Z2)
PIP4K2C (human) = PIP4K2C (human) (UniProt Q8TBX8)
CRK2 (P.falciparum) = CRK2 (P.falciparum) (UniProt P61075)

Sequence of FLT3 (human) (P36888 whole entry, looked up): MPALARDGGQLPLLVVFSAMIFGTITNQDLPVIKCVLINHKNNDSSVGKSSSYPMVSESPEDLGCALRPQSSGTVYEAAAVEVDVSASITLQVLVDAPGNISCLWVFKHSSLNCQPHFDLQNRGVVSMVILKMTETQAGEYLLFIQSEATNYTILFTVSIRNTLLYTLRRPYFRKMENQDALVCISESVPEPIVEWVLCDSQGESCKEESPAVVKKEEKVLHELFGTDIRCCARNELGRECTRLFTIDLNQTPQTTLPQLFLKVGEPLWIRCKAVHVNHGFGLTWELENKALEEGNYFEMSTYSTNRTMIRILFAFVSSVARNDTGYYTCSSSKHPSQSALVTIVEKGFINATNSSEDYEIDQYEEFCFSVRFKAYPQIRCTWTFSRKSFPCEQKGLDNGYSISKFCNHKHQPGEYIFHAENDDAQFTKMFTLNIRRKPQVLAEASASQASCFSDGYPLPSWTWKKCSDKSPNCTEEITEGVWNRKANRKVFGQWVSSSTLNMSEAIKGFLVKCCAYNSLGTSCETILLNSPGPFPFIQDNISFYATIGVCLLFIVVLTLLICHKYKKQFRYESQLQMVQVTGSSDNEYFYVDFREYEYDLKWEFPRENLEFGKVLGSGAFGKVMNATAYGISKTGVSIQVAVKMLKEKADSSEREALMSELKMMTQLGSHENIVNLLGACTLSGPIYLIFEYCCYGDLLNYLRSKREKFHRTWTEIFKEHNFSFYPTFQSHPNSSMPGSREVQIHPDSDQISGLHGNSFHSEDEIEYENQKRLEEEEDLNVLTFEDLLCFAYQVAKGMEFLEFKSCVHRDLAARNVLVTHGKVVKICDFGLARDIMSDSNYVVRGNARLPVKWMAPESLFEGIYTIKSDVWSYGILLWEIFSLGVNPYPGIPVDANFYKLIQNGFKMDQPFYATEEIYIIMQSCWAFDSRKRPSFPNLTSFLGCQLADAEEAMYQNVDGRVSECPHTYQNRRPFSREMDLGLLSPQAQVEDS
Sequence of MARK1 (human) (Q9P0L2 whole entry, looked up): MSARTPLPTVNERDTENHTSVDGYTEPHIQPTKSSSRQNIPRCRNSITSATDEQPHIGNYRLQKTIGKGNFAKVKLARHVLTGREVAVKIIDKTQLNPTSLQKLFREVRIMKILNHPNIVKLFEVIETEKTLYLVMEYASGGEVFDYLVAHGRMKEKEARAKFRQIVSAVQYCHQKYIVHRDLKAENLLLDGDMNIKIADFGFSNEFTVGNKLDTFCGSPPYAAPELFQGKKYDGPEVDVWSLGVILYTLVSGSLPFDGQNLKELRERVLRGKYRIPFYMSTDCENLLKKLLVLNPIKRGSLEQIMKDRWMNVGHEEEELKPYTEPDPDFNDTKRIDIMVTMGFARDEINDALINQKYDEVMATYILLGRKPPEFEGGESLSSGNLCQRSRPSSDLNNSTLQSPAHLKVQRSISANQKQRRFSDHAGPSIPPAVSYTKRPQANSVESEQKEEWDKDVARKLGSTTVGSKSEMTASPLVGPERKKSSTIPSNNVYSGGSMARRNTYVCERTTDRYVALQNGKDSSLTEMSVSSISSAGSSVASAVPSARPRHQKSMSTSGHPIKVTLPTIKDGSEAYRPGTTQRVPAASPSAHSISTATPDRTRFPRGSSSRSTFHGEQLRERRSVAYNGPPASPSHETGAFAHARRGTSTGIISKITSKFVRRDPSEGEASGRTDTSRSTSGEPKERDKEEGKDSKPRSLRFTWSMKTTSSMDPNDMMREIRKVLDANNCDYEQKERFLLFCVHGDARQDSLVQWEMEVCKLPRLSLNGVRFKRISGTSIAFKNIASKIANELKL
Sequence of MATK (human) (P42679 whole entry, looked up): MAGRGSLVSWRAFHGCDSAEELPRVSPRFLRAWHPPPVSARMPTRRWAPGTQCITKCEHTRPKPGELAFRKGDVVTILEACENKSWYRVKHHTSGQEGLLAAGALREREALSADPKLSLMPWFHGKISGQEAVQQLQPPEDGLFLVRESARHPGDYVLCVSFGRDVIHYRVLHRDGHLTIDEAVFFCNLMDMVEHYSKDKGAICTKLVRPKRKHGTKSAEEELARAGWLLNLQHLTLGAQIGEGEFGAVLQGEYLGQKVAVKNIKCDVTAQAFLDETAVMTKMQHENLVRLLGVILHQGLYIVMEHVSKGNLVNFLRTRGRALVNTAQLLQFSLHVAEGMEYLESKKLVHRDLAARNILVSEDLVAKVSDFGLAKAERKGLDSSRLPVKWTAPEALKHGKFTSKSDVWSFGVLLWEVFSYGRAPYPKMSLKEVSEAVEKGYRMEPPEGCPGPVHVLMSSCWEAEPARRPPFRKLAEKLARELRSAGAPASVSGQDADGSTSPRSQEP
Sequence of MAPK10 (human) (P53779 whole entry, looked up): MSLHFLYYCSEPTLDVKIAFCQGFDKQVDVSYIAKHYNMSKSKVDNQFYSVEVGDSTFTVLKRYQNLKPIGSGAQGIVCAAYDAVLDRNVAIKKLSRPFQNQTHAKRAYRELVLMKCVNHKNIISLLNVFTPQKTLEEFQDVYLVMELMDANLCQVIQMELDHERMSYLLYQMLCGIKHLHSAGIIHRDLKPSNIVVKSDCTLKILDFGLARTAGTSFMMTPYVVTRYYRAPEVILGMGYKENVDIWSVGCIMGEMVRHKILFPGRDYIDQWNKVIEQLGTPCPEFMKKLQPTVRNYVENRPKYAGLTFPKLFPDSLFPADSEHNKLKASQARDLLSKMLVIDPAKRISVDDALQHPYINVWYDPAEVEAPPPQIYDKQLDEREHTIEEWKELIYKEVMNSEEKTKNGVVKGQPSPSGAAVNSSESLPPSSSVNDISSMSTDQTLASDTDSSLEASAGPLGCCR
Sequence of PRKX (human) (P51817 whole entry, looked up): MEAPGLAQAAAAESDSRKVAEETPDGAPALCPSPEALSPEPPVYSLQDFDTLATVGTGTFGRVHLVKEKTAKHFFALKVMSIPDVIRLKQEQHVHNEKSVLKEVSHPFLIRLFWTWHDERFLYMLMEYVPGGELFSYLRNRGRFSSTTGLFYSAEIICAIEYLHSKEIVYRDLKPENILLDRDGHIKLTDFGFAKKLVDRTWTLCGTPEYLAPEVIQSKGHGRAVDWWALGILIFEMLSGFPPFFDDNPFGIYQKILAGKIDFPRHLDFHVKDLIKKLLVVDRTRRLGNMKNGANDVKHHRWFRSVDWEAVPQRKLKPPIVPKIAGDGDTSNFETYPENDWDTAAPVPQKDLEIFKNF
Sequence of RIOK1 (human) (Q9BRS2 whole entry, looked up): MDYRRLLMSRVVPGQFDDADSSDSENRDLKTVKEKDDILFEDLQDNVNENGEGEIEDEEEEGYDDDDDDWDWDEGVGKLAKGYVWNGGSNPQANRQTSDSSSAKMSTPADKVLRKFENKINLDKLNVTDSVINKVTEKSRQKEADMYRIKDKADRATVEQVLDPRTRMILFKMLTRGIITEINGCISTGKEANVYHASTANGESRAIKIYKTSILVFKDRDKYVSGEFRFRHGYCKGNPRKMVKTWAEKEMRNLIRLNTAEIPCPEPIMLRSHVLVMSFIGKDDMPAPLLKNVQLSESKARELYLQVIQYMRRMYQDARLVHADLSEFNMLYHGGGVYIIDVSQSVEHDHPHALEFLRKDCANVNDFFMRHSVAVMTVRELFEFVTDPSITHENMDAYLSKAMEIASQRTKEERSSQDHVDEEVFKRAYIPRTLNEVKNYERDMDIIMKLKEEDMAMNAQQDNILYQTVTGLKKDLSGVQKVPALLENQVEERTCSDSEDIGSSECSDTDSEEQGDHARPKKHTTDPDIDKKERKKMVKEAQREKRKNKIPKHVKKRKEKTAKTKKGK
Sequence of STK25 (human) (O00506 whole entry, looked up): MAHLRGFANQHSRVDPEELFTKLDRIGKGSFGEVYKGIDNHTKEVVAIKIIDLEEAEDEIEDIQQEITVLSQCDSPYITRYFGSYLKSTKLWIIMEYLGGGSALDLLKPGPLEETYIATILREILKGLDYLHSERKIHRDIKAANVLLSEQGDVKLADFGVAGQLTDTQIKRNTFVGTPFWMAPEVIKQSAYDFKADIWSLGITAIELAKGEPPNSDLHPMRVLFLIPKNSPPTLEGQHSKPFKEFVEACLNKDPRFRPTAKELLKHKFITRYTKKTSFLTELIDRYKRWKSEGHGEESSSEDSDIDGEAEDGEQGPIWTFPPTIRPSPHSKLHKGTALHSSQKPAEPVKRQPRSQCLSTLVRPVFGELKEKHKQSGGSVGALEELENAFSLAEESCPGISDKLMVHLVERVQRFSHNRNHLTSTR
Sequence of MELK (human) (Q14680 whole entry, looked up): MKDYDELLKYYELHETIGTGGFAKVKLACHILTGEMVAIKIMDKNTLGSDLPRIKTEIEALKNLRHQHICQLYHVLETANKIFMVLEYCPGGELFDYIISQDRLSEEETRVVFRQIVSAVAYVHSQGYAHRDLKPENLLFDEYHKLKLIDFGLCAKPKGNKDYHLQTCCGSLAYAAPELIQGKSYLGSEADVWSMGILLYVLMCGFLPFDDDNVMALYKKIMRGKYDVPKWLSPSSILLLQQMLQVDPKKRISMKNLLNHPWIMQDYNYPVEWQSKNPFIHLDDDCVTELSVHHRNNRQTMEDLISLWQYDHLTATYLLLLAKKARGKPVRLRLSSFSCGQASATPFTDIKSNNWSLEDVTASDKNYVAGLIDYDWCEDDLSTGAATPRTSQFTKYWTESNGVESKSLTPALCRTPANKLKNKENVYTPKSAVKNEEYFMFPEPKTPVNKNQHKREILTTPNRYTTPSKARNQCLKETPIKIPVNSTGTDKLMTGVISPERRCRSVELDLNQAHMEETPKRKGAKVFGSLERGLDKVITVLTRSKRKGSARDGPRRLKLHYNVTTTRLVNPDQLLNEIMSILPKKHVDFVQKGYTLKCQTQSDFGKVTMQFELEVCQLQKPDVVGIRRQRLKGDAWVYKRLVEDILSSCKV

| SMILES | kinase still bound, per cent of control (STK4 (human)) | kinase still bound, per cent of control (CDKL5 (human)) | kinase still bound, per cent of control (RIPK1 (human)) | kinase still bound, per cent of control (MARK1 (human)) | kinase still bound, per cent of control [1] | kinase still bound, per cent of control (GSK3A (human)) | kinase still bound, per cent of control (NEK7 (human)) | kinase still bound, per cent of control (MAPK10 (human)) | kinase still bound, per cent of control (PIK3CB (human)) | kinase still bound, per cent of control (PRKG2 (human)) | kinase still bound, per cent of control [2] | kinase still bound, per cent of control (RIOK1 (human)) | kinase still bound, per cent of control (NEK1 (human)) | kinase still bound, per cent of control (AKT1 (human)) | kinase still bound, per cent of control (SIK1 (human)) | kinase still bound, per cent of control (GSK3B (human)) | kinase still bound, per cent of control (RPS6KA6 KD1 (human)) | kinase still bound, per cent of control (DAPK3 (human)) | kinase still bound, per cent of control (SRPK2 (human)) | kinase still bound, per cent of control (MATK (human)) | also measured |
| --- | --- | --- | --- | --- | --- | --- | --- | --- | --- | --- | --- | --- | --- | --- | --- | --- | --- | --- | --- | --- | --- |
| CCN(CC)CCCCNc1ncc2c(n1)N(C)C(=O)N(c1c(Cl)c(OC)cc(OC)c1Cl)C2 | 100% | 100% | 100% | 100% | 100% | 100% | 100% | 100% | 100% | 100% | 100% | 100% | 100% | 100% | 100% | 100% | 100% | 100% | 100% | 100% | kinase still bound, per cent of control (STK25 (human)): 100%; kinase still bound, per cent of control (CSF1R (human)): 0.15%; kinase still bound, per cent of control (FLT3 (human)): 100%; kinase still bound, per cent of control (EPHA3 (human)): 100%; kinase still bound, per cent of control (MAP3K10 (human)): 100%; kinase still bound, per cent of control (MYLK2 (human)): 100%; kinase still bound, per cent of control (PRKX (human)): 100%; kinase still bound, per cent of control (RPS6KA2 KD1 (human)): 100%; kinase still bound, per cent of control (MAPKAPK2 (human)): 100%; kinase still bound, per cent of control (PTK6 (human)): 100%; kinase still bound, per cent of control (STK32C (human)): 100%; kinase still bound, per cent of control (RIPK4 (human)): 100%; kinase still bound, per cent of control (RPS6KA2 KD2 (human)): 100%; kinase still bound, per cent of control (MELK (human)): 100%; kinase still bound, per cent of control (FGFR2 (human)): 2.6%; kinase still bound, per cent of control [3]: 100% |
| COc1cc(N2CCN(C)CC2)ccc1Nc1ncc2c(n1)N(C)c1ccccc1C(=O)N2C | 100% | 100% | 100% | 100% | 100% | 100% | 100% | 100% | 100% | 100% | 100% | 100% | 100% | 100% | 100% | 100% | 100% | 100% | 100% | 100% | kinase still bound, per cent of control (STK25 (human)): 100%; kinase still bound, per cent of control (CSF1R (human)): 16%; kinase still bound, per cent of control (FLT3 (human)): 100%; kinase still bound, per cent of control (EPHA3 (human)): 100%; kinase still bound, per cent of control (MAP3K10 (human)): 100%; kinase still bound, per cent of control (MYLK2 (human)): 100%; kinase still bound, per cent of control (PRKX (human)): 100%; kinase still bound, per cent of control (RPS6KA2 KD1 (human)): 100%; kinase still bound, per cent of control (MAPKAPK2 (human)): 100%; kinase still bound, per cent of control (PTK6 (human)): 7.6%; kinase still bound, per cent of control (STK32C (human)): 100%; kinase still bound, per cent of control (RIPK4 (human)): 100%; kinase still bound, per cent of control (RPS6KA2 KD2 (human)): 15%; kinase still bound, per cent of control (MELK (human)): 100%; kinase still bound, per cent of control (FGFR2 (human)): 100%; kinase still bound, per cent of control [3]: 100% |
| COc1cc2ncn(-c3cc(OCc4ccccc4C(F)(F)F)c(C(N)=O)s3)c2cc1OC | 56% | 73% | 74% | 82% | 100% | 100% | 74% | 89% | 54% | 86% | 59% | 4.1% | 65% | 100% | 40% | 100% | 18% | 19% | 34% | 85% | kinase still bound, per cent of control (VRK2 (human)): 87%; kinase still bound, per cent of control (PKN3 (M.tuberculosis)): 76%; kinase still bound, per cent of control (PIP4K2C (human)): 26%; kinase still bound, per cent of control (CRK2 (P.falciparum)): 93%; kinase still bound, per cent of control (MAP3K10 (human)): 98%; kinase still bound, per cent of control (MYLK2 (human)): 59%; kinase still bound, per cent of control (PRKX (human)): 98%; kinase still bound, per cent of control (RPS6KA2 KD1 (human)): 61%; kinase still bound, per cent of control (MAPKAPK2 (human)): 100%; kinase still bound, per cent of control (PTK6 (human)): 84%; kinase still bound, per cent of control (STK32C (human)): 100%; kinase still bound, per cent of control (RIPK4 (human)): 100%; kinase still bound, per cent of control (RPS6KA2 KD2 (human)): 74%; kinase still bound, per cent of control (MELK (human)): 61%; kinase still bound, per cent of control [3]: 88% |
| CS(=O)(=O)N1CCN(Cc2cc3nc(-c4cccc5[nH]ncc45)nc(N4CCOCC4)c3s2)CC1 | 100% | 100% | 100% | 100% | 100% | 100% | 100% | 100% | 0.1% | 100% | 100% | 100% | 100% | 100% | 100% | 100% | 100% | 100% | 100% | 100% | kinase still bound, per cent of control (STK25 (human)): 100%; kinase still bound, per cent of control (CSF1R (human)): 100%; kinase still bound, per cent of control (FLT3 (human)): 100%; kinase still bound, per cent of control (EPHA3 (human)): 100%; kinase still bound, per cent of control (MAP3K10 (human)): 100%; kinase still bound, per cent of control (MYLK2 (human)): 100%; kinase still bound, per cent of control (PRKX (human)): 100%; kinase still bound, per cent of control (RPS6KA2 KD1 (human)): 100%; kinase still bound, per cent of control (MAPKAPK2 (human)): 100%; kinase still bound, per cent of control (PTK6 (human)): 100%; kinase still bound, per cent of control (STK32C (human)): 100%; kinase still bound, per cent of control (RIPK4 (human)): 100%; kinase still bound, per cent of control (RPS6KA2 KD2 (human)): 100%; kinase still bound, per cent of control (MELK (human)): 100%; kinase still bound, per cent of control (FGFR2 (human)): 100%; kinase still bound, per cent of control [3]: 100% |
